Converted amounts (≈) assume the structure as drawn. Marks after values point to notes of the source that are not given here.
How the values were obtained:
[1] = test system: ABSSSI caused by susceptible gram-positive bacteria, including MRSA; test: SOLO I and SOLO II combined, efficacy; assay type: in vivo, human; conditions: for FDA primary endpoint: Cessation of spread, absence of fever, no rescue antibiotics / ≧20% reduction of lesion area / FDA primary endpoint: Cessation of spread, absence of fever, no rescue antibiotics, number of patients / ≧20% reduction of lesion area, number of patients / % Difference (95% CI), FDA primary endpoint / % Difference (95% CI), ≧20% reduction of lesion area / EMA primary endpoint: Investigator-assessed clinical cure / EMA primary endpoint: Investigator-assessed clinical cure, number of patients / % Difference (95% CI), investigator-assessed clinical cure: SOLO I and SOLO II combined; for FDA primary endpoint: Cessation of spread, absence of fever, no rescue antibiotics / ≧20% reduction of lesion area / FDA primary endpoint: Cessation of spread, absence of fever, no rescue antibiotics, number of patients / ≧20% reduction of lesion area, number of patients / % Difference (95% CI), FDA primary endpoint / % Difference (95% CI), ≧20% reduction of lesion area: ECE; for % Difference (95% CI), FDA primary endpoint / % Difference (95% CI), ≧20% reduction of lesion area / % Difference (95% CI), investigator-assessed clinical cure: oritavancin vs vancomycin; for EMA primary endpoint: Investigator-assessed clinical cure / EMA primary endpoint: Investigator-assessed clinical cure, number of patients / % Difference (95% CI), investigator-assessed clinical cure: PTE
From the text: Complete results were obtained from a phase 3 clinical trial program of oritavancin (SOLO), which investigated the drug for the treatment of acute bacterial skin and skin structure infections (ABSSSI) caused by susceptible gram-positive bacteria, including methicillin-resistant Staphylococcus aureus (MRSA). SOLO I and SOLO II clinical trials were identical multicenter, double-blind, randomized clinical trials.
In microbiologically confirmed MRSA patients, efficacy was similar in both treatment groups; however, a higher proportion of MRSA-infected patients in the oritavancin group achieved the endpoint of greater than or equal to 20% reduction of lesion area at ECE (p value=0.032). Under the Special Protocol Assessment (SPA) agreed with the FDA, the protocols pre-specified that MRSA patients from the SOLO studies would be pooled for the evaluation of efficacy.
The combined SOLO studies represented 1,987 patients in an intent-to-treat population for evaluation of oritavancin in the treatment of ABSSSI in controlled clinical trials and assessed one of the largest subsets of patients with documented MRSA infection (405 patients).

[2] = test system: S. aureus strains (14 mecC MRSA, 2 mecA MRSA, ATCC 29213 MSSA); test: Broth microdilution MIC determination; assay type: cell-based, Staphylococcus aureus; conditions: for MIC90 / MIC: Staphylococcus aureus
Protocol: The S. aureus (SA) strains used in this study were: ATCC 43300 (mecA methicillin-resistant SA [MRSA]); ATCC 33591 (mecA MRSA), ATCC 29213 (methicillin-susceptible SA; quality control strain) and 14 mecC MRSA obtained from the Staten Serum Institute (Copenhagen, Denmark).
Tests with oritavancin included polysorbate-80 (final test concentration of 0.002%) as described (CLSI 2012a; Arhin et al., 2008). Tests with daptomycin included CaCl2 at a concentration of 50 mg/L. MICs were read after 24 h incubation.

[3] = SOLO I and SOLO II combined, safety; assay type: in vivo, human; conditions: for Treatment emergent adverse events considered by investigators as related to study drug: p=0.002; for Patients reported to experience at least one adverse event: safety population
[4] = confirmed MRSA, MicroITT, oritavancin n = 204, vancomycin n = 201
[5] = mITT, oritavancin n = 978, vancomycin n = 981
[6] = ATCC 29213 / ATCC 33591 / MRSA / MSSA, ATCC 33591 MRSA (mecA)
[7] = ATCC 29213 / ATCC 43300 / MRSA / MSSA, ATCC 43300 MRSA (mecA)

In the case of CN[C@H](CC(C)C)C(=O)N[C@H]1C(=O)N[C@@H](CC(N)=O)C(=O)N[C@H]2C(=O)N[C@H]3C(=O)N[C@H](C(=O)N[C@H](C(=O)O)c4cc(O)cc(O)c4-c4cc3ccc4O)[C@H](O[C@H]3C[C@](C)(N)[C@@H](O)[C@H](C)O3)c3ccc(c(Cl)c3)Oc3cc2cc(c3O[C@@H]2O[C@H](CO)[C@@H](O)[C@H](O)[C@H]2O[C@H]2C[C@](C)(NCc3ccc(-c4ccc(Cl)cc4)cc3)[C@@H](O)[C@H](C)O2)Oc2ccc(cc2Cl)[C@H]1O [Oritavancin, N^DISACC-(4-(4-chlorophenyl)benzyl)A82846B], the “FDA primary endpoint: Cessation of spread, absence of fever, no rescue antibiotics” value ([1]; confirmed MRSA, MicroITT) is reported as 81.4%, the “≧20% reduction of lesion area” value ([1]; confirmed MRSA, MicroITT) is reported as 93.1% and the “FDA primary endpoint: Cessation of spread, absence of fever, no rescue antibiotics, number of patients” value [1, 4] is reported as 166. The “≧20% reduction of lesion area, number of patients” value (“≧20% reduction … of patients” below) [1, 4] was 190, the “% Difference (95% CI), FDA primary endpoint” value ([1]; confirmed MRSA, MicroITT) was 0.8 (−6.9, 8.4) % and the “% Difference (95% CI), ≧20% reduction of lesion area” value ([1]; confirmed MRSA, MicroITT, p value = 0.032) was 6.1 (0.5, 11.6)* %. The “EMA primary endpoint: Investigator-assessed clinical cure” value ([1]; confirmed MRSA, MicroITT) was 83.3%, the “EMA primary endpoint: Investigator-assessed clinical cure, number of patients” value (“EMA primary endpoint … of patients” below) [1, 4] was 170 and the “% Difference (95% CI), investigator-assessed clinical cure” value ([1]; confirmed MRSA, MicroITT) was −0.7 (−7.9, 6.4) %. The “FDA primary endpoint: Cessation of spread, absence of fever, no rescue antibiotics” value ([1]; mITT) was 81.2%, the “≧20% reduction of lesion area” value ([1]; mITT) was 86.4% and the “FDA primary endpoint: Cessation of spread, absence of fever, no rescue antibiotics, number of patients” value [1, 5] was 794. The “≧20% reduction … of patients” value [1, 5] was 845, the “% Difference (95% CI), FDA primary endpoint” value ([1]; mITT) was 0.2 (−3.3, 3.7) % and the “% Difference (95% CI), ≧20% reduction of lesion area” value ([1]; mITT) was 2.3 (−0.9, 5.4) %. The “EMA primary endpoint: Investigator-assessed clinical cure” value ([1]; mITT) was 81.2%, the “EMA primary endpoint … of patients” value [1, 5] was 794 and the “% Difference (95% CI), investigator-assessed clinical cure” value ([1]; mITT) was 1.0 (−2.5, 4.5) %. The “Efficacy versus vancomycin for ECE and PTE endpoints” value ([1]; combined SOLO trials) was “non-inferior to vancomycin”, the MIC90 [2] was 0.06 µg/mL (≈ 0.0335 µM) and the MIC ([2]; 57147 MRSA (mecC)) was 0.03 µg/mL (≈ 0.0167 µM). It also gave an MIC ([2]; 70611 MRSA (mecC)) of 0.06 µg/mL (≈ 0.0335 µM), an MIC ([2]; 73348 MRSA (mecC)) of 0.06 µg/mL (≈ 0.0335 µM) and an MIC ([2]; 73415 MRSA (mecC)) of 0.06 µg/mL (≈ 0.0335 µM). For the same molecule, the MIC ([2]; 73617 MRSA (mecC)) was 0.03 µg/mL (≈ 0.0167 µM), the MIC ([2]; 73829 MRSA (mecC)) was 0.03 µg/mL (≈ 0.0167 µM) and the MIC ([2]; 75814 MRSA (mecC)) was 0.06 µg/mL (≈ 0.0335 µM). The MIC ([2]; 76918 MRSA (mecC)) was 0.03 µg/mL (≈ 0.0167 µM), the MIC ([2]; 77431 MRSA (mecC)) was 0.03 µg/mL (≈ 0.0167 µM) and the MIC ([2]; 77601 MRSA (mecC)) was 0.03 µg/mL (≈ 0.0167 µM). For the same molecule, the MIC ([2]; 77950 MRSA (mecC)) was 0.03 µg/mL (≈ 0.0167 µM), the MIC ([2]; 77964 MRSA (mecC)) was 0.06 µg/mL (≈ 0.0335 µM) and the MIC ([2]; 78085 MRSA (mecC)) was 0.06 µg/mL (≈ 0.0335 µM). It also gave an MIC ([2]; 78651 MRSA (mecC)) of 0.06 µg/mL (≈ 0.0335 µM), an MIC ([2]; ATCC 29213 (MSSA)) of 0.06 µg/mL (≈ 0.0335 µM) and an MIC [2, 6] of 0.06 µg/mL (≈ 0.0335 µM). For the same molecule, the MIC [2, 7] was 0.06 µg/mL (≈ 0.0335 µM), the MIC ([2]; QC and mecA strains) was 0.06 µg/mL (≈ 0.0335 µM) and the MIC range ([2]; mecC strains) was 0.03 to 0.06 µg/mL. The “Patients with adverse events leading to study drug discontinuation” value [3] was 3.7%, the “Treatment emergent adverse events considered by investigators as related to study drug” value [3] was 22.2% and the “Patients reported to experience at least one adverse event” value [3] was 55.3%.
In the case of CN[C@H](CC(C)C)C(=O)N[C@H]1C(=O)N[C@@H](CC(N)=O)C(=O)N[C@H]2C(=O)N[C@H]3C(=O)N[C@H](C(=O)N[C@H](C(=O)O)c4cc(O)cc(O)c4-c4cc3ccc4O)[C@H](O)c3ccc(c(Cl)c3)Oc3cc2cc(c3O[C@@H]2O[C@H](CO)[C@@H](O)[C@H](O)[C@H]2O[C@H]2C[C@](C)(N)[C@H](O)[C@H](C)O2)Oc2ccc(cc2Cl)[C@H]1O [Vancomycin, vancomycin], the “FDA primary endpoint: Cessation of spread, absence of fever, no rescue antibiotics” value ([1]; confirmed MRSA, MicroITT) is reported as 80.6%, the “≧20% reduction of lesion area” value ([1]; confirmed MRSA, MicroITT) is reported as 87.1% and the “FDA primary endpoint: Cessation of spread, absence of fever, no rescue antibiotics, number of patients” value [1, 4] is reported as 162. For the same molecule, the “≧20% reduction … of patients” value [1, 4] was 175, the “EMA primary endpoint: Investigator-assessed clinical cure” value ([1]; confirmed MRSA, MicroITT) was 84.1% and the “EMA primary endpoint … of patients” value [1, 4] was 169. The “FDA primary endpoint: Cessation of spread, absence of fever, no rescue antibiotics” value ([1]; mITT) was 80.9%, the “≧20% reduction of lesion area” value ([1]; mITT) was 84.1% and the “FDA primary endpoint: Cessation of spread, absence of fever, no rescue antibiotics, number of patients” value [1, 5] was 794. For the same molecule, the “≧20% reduction … of patients” value [1, 5] was 825, the “EMA primary endpoint: Investigator-assessed clinical cure” value ([1]; mITT) was 80.2% and the “EMA primary endpoint … of patients” value [1, 5] was 787. The MIC90 [2] was 1 µg/mL (≈ 0.69 µM), the MIC ([2]; 57147 MRSA (mecC)) was 1 µg/mL (≈ 0.69 µM) and the MIC ([2]; 70611 MRSA (mecC)) was 1 µg/mL (≈ 0.69 µM). It also gave an MIC ([2]; 73348 MRSA (mecC)) of 1 µg/mL (≈ 0.69 µM), an MIC ([2]; 73415 MRSA (mecC)) of 1 µg/mL (≈ 0.69 µM) and an MIC ([2]; 73617 MRSA (mecC)) of 1 µg/mL (≈ 0.69 µM). For the same molecule, the MIC ([2]; 73829 MRSA (mecC)) was 1 µg/mL (≈ 0.69 µM), the MIC ([2]; 75814 MRSA (mecC)) was 1 µg/mL (≈ 0.69 µM) and the MIC ([2]; 76918 MRSA (mecC)) was 1 µg/mL (≈ 0.69 µM). It also gave an MIC ([2]; 77431 MRSA (mecC)) of 1 µg/mL (≈ 0.69 µM), an MIC ([2]; 77601 MRSA (mecC)) of 1 µg/mL (≈ 0.69 µM) and an MIC ([2]; 77950 MRSA (mecC)) of 1 µg/mL (≈ 0.69 µM). It also gave an MIC ([2]; 77964 MRSA (mecC)) of 1 µg/mL (≈ 0.69 µM), an MIC ([2]; 78085 MRSA (mecC)) of 1 µg/mL (≈ 0.69 µM) and an MIC ([2]; 78651 MRSA (mecC)) of 1 µg/mL (≈ 0.69 µM). It also gave an MIC ([2]; ATCC 29213 (MSSA)) of 1 µg/mL (≈ 0.69 µM), an MIC [2, 6] of 1 µg/mL (≈ 0.69 µM) and an MIC [2, 7] of 1 µg/mL (≈ 0.69 µM). For the same molecule, the MIC ([2]; all strains tested) was 1 µg/mL (≈ 0.69 µM), the “Patients with adverse events leading to study drug discontinuation” value [3] was 4.2% and the “Treatment emergent adverse events considered by investigators as related to study drug” value [3] was 28.4%. For the same molecule, the “Patients reported to experience at least one adverse event” value [3] was 56.9%.

From patent US20160101148A1, “TREATMENT AND PREVENTION OF BACTERIAL SKIN INFECTIONS USING ORITAVANCIN” (priority 2013, published 2016)
